Measured values from PubChem BioAssay (NCI).
“And” between values parts separate entries of the source, which are not always exact repeats. Equal entries are not always repeated.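 Method: 48-hour compound exposure of cells in 96-well plates, five concentrations, linear interpolation of endpoints. GI50: concentration for 50% inhibition of growth. TGI marks complete inhibition of growth.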

Assays:
Experiment in all cases: NCI-60 cell line screen, 48 h
NCI/ADR-RES ovarian = test system: NCI/ADR-RES ovarian
NCI-H460 lung = test system: NCI-H460 lung
CCRF-CEM leukemia = test system: CCRF-CEM leukemia
MALME-3M melanoma = test system: MALME-3M melanoma
MDA-MB-435 = test system: MDA-MB-435
A549 NSCLC = test system: A549 NSCLC
TK-10 renal = test system: TK-10 renal
SK-MEL-28 melanoma = test system: SK-MEL-28 melanoma
NCI-H522 lung = test system: NCI-H522 lung
BT-549 breast = test system: BT-549 breast

Compound	GI50 (NCI/ADR-RES ovarian)	TGI (NCI/ADR-RES ovarian) [µM]	GI50 (NCI-H460 lung)	TGI (NCI-H460 lung) [µM]	GI50 (CCRF-CEM leukemia)	TGI (CCRF-CEM leukemia)	GI50 (MALME-3M melanoma)	TGI (MALME-3M melanoma) [µM]	GI50 (MDA-MB-435)	TGI (MDA-MB-435) [µM]	GI50 (A549 NSCLC)	TGI (A549 NSCLC) [µM]	GI50 (TK-10 renal)	TGI (TK-10 renal) [µM]	GI50 (SK-MEL-28 melanoma)	TGI (SK-MEL-28 melanoma) [µM]	GI50 (NCI-H522 lung)	TGI (NCI-H522 lung) [µM]	GI50 (BT-549 breast)	TGI (BT-549 breast)
O=C(Nc1ccc(Cl)cc1)Nc1ccccc1CNc1nc(Nc2ccc(OCCN3CCCC3)cc2)ncc1Cl	1.16 µM	2.64	0.936 µM	1.78	1.32 µM	3.43 µM	0.828 µM	1.59	0.935 µM	1.93	1.49 µM	4.49	0.982 µM	1.91	0.855 µM	1.58	1.18 µM	2.94	5.87 µM	12.6 µM
CC12OC(C(=O)C13CCC3)C1C(=O)c3ccccc3C(=O)C12 (stereo not given)	> 100 µM	> 100	> 100 µM	> 100	36.9 µM	> 100 µM	33 µM	> 100	> 100 µM	> 100	> 100 µM	> 100	92.5 µM	> 100	> 100 µM	> 100	> 100 µM	> 100	> 100 µM	> 100 µM
CN(C)C(=O)SC1=C(c2c(Cl)cccc2Cl)C(=O)c2ccccc21	9.42 µM	25.8	17.4 µM	37.2	2.67 µM	9.27 µM	1.66 µM	3.74	4.54 µM	15.9	24.8 µM	> 55.7	3.5 µM	9.64	3.16 µM	8.89	1.74 µM	4.05	9.78 µM	23.5 µM
CC(=O)Oc1ccc(C2(c3ccc(OC(C)=O)cc3)C(=O)Nc3ccccc32)cc1	1.16 µM and 1.8 µM	> 100	36.6 µM and 46.3 µM	> 100	25.7 µM and 28.6 µM	> 100 µM and 99.3 µM	64.5 µM and > 100 µM	> 100	30.6 µM and 29.8 µM	> 100	33.8 µM and 42.9 µM	> 100	3.14 µM and 17.6 µM	> 100	35.1 µM and 34.2 µM	> 100	3.12 µM and 4.56 µM	> 100	0.064 µM and 0.158 µM	0.524 µM and 0.733 µM
CN(C)CCCC1(c2ccc(F)cc2)OCc2cc(-c3cncc4ccccc34)ccc21 (stereo not given)	4.89 µM	18.8	1.73 µM	3.49	3.45 µM	11.6 µM	1.55 µM	3.09	1.71 µM	3.22	3.92 µM	16.2	2.83 µM	12.2	1.75 µM	3.24	1.88 µM	4.08	7.45 µM	20.5 µM
CC(C)(C)[Si](C)(C)OCC1OC(n2cnc3c(N)ncnc32)C(O)C1O (stereo not given)		> 100		> 100		> 100 µM		> 100		> 100		> 100		> 100		> 100		> 100		> 100 µM
